Experimental data published in PubChem BioAssay (NCI).
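Briefly, cells in 96-well plates were exposed to five compound concentrations for 48 h, and endpoints were estimated by linear interpolation. At the TGI there is no net growth.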

Assays:
Test in all cases: NCI anticancer screen, dose series, 48 h
MDA-MB-435 = tested on: MDA-MB-435
DU-145 prostate = tested on: DU-145 prostate
T-47D breast = tested on: T-47D breast
OVCAR-3 ovarian = tested on: OVCAR-3 ovarian
SK-MEL-28 melanoma = tested on: SK-MEL-28 melanoma
NCI-H460 lung = tested on: NCI-H460 lung
RXF 393 renal = tested on: RXF 393 renal
UACC-257 melanoma = tested on: UACC-257 melanoma
HCT-15 colon = tested on: HCT-15 colon
A549 NSCLC = tested on: A549 NSCLC
UO-31 renal = tested on: UO-31 renal
HOP-62 NSCLC = tested on: HOP-62 NSCLC
HT29 colon = tested on: HT29 colon
KM12 colon = tested on: KM12 colon
CAKI-1 renal = tested on: CAKI-1 renal
NCI-H522 lung = tested on: NCI-H522 lung
OVCAR-4 ovarian = tested on: OVCAR-4 ovarian
SN12C renal = tested on: SN12C renal
HL-60(TB) leukemia = tested on: HL-60(TB) leukemia
BT-549 breast = tested on: BT-549 breast
M14 melanoma = tested on: M14 melanoma
SW-620 colon = tested on: SW-620 colon
HOP-92 NSCLC = tested on: HOP-92 NSCLC
SK-MEL-2 melanoma = tested on: SK-MEL-2 melanoma
HCC-2998 colon = tested on: HCC-2998 colon
LOX IMVI melanoma = tested on: LOX IMVI melanoma
SF-539 CNS = tested on: SF-539 CNS
MOLT-4 leukemia = tested on: MOLT-4 leukemia
MDA-MB-231 breast = tested on: MDA-MB-231 breast
TK-10 renal = tested on: TK-10 renal
NCI-H23 lung = tested on: NCI-H23 lung
NCI/ADR-RES ovarian = tested on: NCI/ADR-RES ovarian
MDA-N = tested on: MDA-N
SR leukemia = tested on: SR leukemia
COLO 205 colon = tested on: COLO 205 colon
OVCAR-5 ovarian = tested on: OVCAR-5 ovarian
SF-295 CNS = tested on: SF-295 CNS
K-562 leukemia = tested on: K-562 leukemia
MCF7 breast = tested on: MCF7 breast
ACHN renal = tested on: ACHN renal
SK-OV-3 ovarian = tested on: SK-OV-3 ovarian
SNB-19 CNS = tested on: SNB-19 CNS
SNB-75 CNS = tested on: SNB-75 CNS
A498 renal = tested on: A498 renal
U251 CNS = tested on: U251 CNS
NCI-H226 lung = tested on: NCI-H226 lung
HCT-116 colon = tested on: HCT-116 colon
786-0 renal = tested on: 786-0 renal
UACC-62 melanoma = tested on: UACC-62 melanoma
CCRF-CEM leukemia = tested on: CCRF-CEM leukemia
EKVX NSCLC = tested on: EKVX NSCLC
MALME-3M melanoma = tested on: MALME-3M melanoma
SK-MEL-5 melanoma = tested on: SK-MEL-5 melanoma
IGROV1 ovarian = tested on: IGROV1 ovarian
OVCAR-8 ovarian = tested on: OVCAR-8 ovarian
PC-3 prostate = tested on: PC-3 prostate
HS 578T breast = tested on: HS 578T breast
RPMI-8226 leukemia = tested on: RPMI-8226 leukemia
SF-268 CNS = tested on: SF-268 CNS

Cc1cc(-c2nc3ccc(F)cc3s2)ccc1NC(=O)[C@H](C)N
TGI (MDA-MB-435): 5.82 µM
TGI (DU-145 prostate): 26 µM
TGI (T-47D breast): > 37.4 µM
TGI (OVCAR-3 ovarian): 23.7 µM
TGI (SK-MEL-28 melanoma): 29.3 µM
TGI (NCI-H460 lung): 6.09 µM
TGI (RXF 393 renal): 21.7 µM
TGI (UACC-257 melanoma): 11.8 µM
TGI (HCT-15 colon): 14.1 µM
TGI (A549 NSCLC): 24.6 µM
TGI (UO-31 renal): 14 µM
TGI (HOP-62 NSCLC): 24.5 µM
TGI (HT29 colon): 8.38 µM
TGI (KM12 colon): 15.3 µM
TGI (CAKI-1 renal): 22.1 µM
TGI (NCI-H522 lung): 20.7 µM
TGI (OVCAR-4 ovarian): 24.4 µM
TGI (SN12C renal): 28.7 µM
TGI (HL-60(TB) leukemia): 7.45 µM
TGI (BT-549 breast): 26.8 µM
TGI (M14 melanoma): 3.94 µM
TGI (SW-620 colon): 15 µM
TGI (HOP-92 NSCLC): 24.7 µM
TGI (SK-MEL-2 melanoma): 25.2 µM
TGI (HCC-2998 colon): 4.5 µM
TGI (LOX IMVI melanoma): 3.99 µM
TGI (SF-539 CNS): 14.9 µM
TGI (MOLT-4 leukemia): 12.8 µM
TGI (MDA-MB-231 breast): 22.6 µM
TGI (TK-10 renal): 5.11 µM
TGI (NCI-H23 lung): 26.1 µM
TGI (NCI/ADR-RES ovarian): 28.5 µM
TGI (MDA-N): 6.19 µM
TGI (SR leukemia): 5.65 µM
TGI (COLO 205 colon): 23.8 µM
TGI (OVCAR-5 ovarian): 21.7 µM
TGI (SF-295 CNS): 24.7 µM
TGI (K-562 leukemia): 4.7 µM
TGI (MCF7 breast): 13.1 µM
TGI (ACHN renal): 22.9 µM
TGI (SK-OV-3 ovarian): 28.2 µM
TGI (SNB-19 CNS): 29.6 µM
TGI (SNB-75 CNS): 25.4 µM
TGI (A498 renal): 21.7 µM
TGI (U251 CNS): 9.06 µM
TGI (NCI-H226 lung): 19.3 µM
TGI (HCT-116 colon): 11.4 µM
TGI (786-0 renal): 16.9 µM
TGI (UACC-62 melanoma): 3.6 µM
TGI (CCRF-CEM leukemia): 6.23 µM
TGI (EKVX NSCLC): 23 µM
TGI (MALME-3M melanoma): 36.2 µM
TGI (SK-MEL-5 melanoma): 26.3 µM
TGI (IGROV1 ovarian): 20 µM
TGI (OVCAR-8 ovarian): 27.3 µM
TGI (PC-3 prostate): 24.3 µM
TGI (HS 578T breast): 28.5 µM
TGI (RPMI-8226 leukemia): 13.8 µM
TGI (SF-268 CNS): 22.8 µM

O=[N+]([O-])c1cc(C=NC23CC4CC(CC(C4)C2)C3)ccc1Cl
TGI (MDA-MB-435): 42.2 µM
TGI (DU-145 prostate): > 60.4 µM
TGI (T-47D breast): 40.8 µM
TGI (OVCAR-3 ovarian): 33.9 µM
TGI (SK-MEL-28 melanoma): 38 µM
TGI (NCI-H460 lung): > 71 µM
TGI (RXF 393 renal): 37.2 µM
TGI (UACC-257 melanoma): 39.6 µM
TGI (HCT-15 colon): 48.3 µM
TGI (A549 NSCLC): > 100 µM
TGI (UO-31 renal): 15.8 µM
TGI (HOP-62 NSCLC): 17.7 µM
TGI (HT29 colon): 39.8 µM
TGI (KM12 colon): 55 µM
TGI (CAKI-1 renal): 18.7 µM
TGI (NCI-H522 lung): 32.7 µM
TGI (OVCAR-4 ovarian): 36.3 µM
TGI (SN12C renal): 35.2 µM
TGI (HL-60(TB) leukemia): 8.28 µM
TGI (BT-549 breast): 45.3 µM
TGI (M14 melanoma): 26.1 µM
TGI (SW-620 colon): 27.7 µM
TGI (HOP-92 NSCLC): 60.5 µM
TGI (SK-MEL-2 melanoma): > 100 µM
TGI (HCC-2998 colon): 75.1 µM
TGI (LOX IMVI melanoma): 36.9 µM
TGI (SF-539 CNS): 55.7 µM
TGI (MOLT-4 leukemia): 27 µM
TGI (MDA-MB-231 breast): 24.7 µM
TGI (TK-10 renal): > 87.2 µM
TGI (NCI-H23 lung): 42.8 µM
TGI (NCI/ADR-RES ovarian): 70.9 µM
TGI (MDA-N): 32.3 µM
TGI (SR leukemia): 12.9 µM
TGI (COLO 205 colon): > 70.3 µM
TGI (OVCAR-5 ovarian): > 100 µM
TGI (SF-295 CNS): 96.9 µM
TGI (K-562 leukemia): > 43.6 µM
TGI (MCF7 breast): 27.9 µM
TGI (ACHN renal): 56.9 µM
TGI (SK-OV-3 ovarian): > 100 µM
TGI (SNB-19 CNS): > 58.5 µM
TGI (SNB-75 CNS): > 100 µM
TGI (A498 renal): > 100 µM
TGI (U251 CNS): 41.6 µM
TGI (NCI-H226 lung): > 81.3 µM
TGI (HCT-116 colon): 19.5 µM
TGI (786-0 renal): 41.2 µM
TGI (UACC-62 melanoma): 20.9 µM
TGI (CCRF-CEM leukemia): 7.97 µM
TGI (EKVX NSCLC): > 61.8 µM
TGI (MALME-3M melanoma): 42.5 µM
TGI (SK-MEL-5 melanoma): 55.4 µM
TGI (IGROV1 ovarian): 47.5 µM
TGI (OVCAR-8 ovarian): > 90.9 µM
TGI (PC-3 prostate): 47.5 µM
TGI (HS 578T breast): > 94 µM
TGI (RPMI-8226 leukemia): 16.8 µM
TGI (SF-268 CNS): > 85.9 µM
